Values joined by “and” are separate entries in the source; they are usually repeats but may differ in a detail not shown here. Equal entries are not always repeated. Where no end group is shown, it is not given here.
What was measured:
[1] = biological target: T1, PD-1/PD-L1 interaction (Homo sapiens, UniProt Q9NZQ7); test: PD-1/PD-L1 blockade bioassay (Promega); type: cell-based; settings: antibodies from immunized rabbits, compared to Nivolumab and Atezolizumab
T1 construct: host or cells: PD-L1 aAPC/CHO-K1 cells and PD-1 effector cells
T1 sequence (Q9NZQ7 19-290): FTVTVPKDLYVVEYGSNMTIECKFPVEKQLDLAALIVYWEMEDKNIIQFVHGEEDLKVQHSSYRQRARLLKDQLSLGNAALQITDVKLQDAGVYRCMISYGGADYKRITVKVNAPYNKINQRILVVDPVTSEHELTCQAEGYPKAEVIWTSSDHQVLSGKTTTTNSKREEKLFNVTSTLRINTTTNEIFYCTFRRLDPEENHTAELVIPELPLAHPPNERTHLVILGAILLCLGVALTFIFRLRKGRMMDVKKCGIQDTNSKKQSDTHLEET
Experimental: The assay was performed following the manufacturer's protocol for the PD-1/PD-L1 blockade bioassay (Promega).
The bioluminescent cell-based PD-1/PD-L1 blockade bioassays provide a good option for rapid screening of therapeutic antibodies or other compounds developed to interfere with PD-1-signaling interaction. PD1/PD-L1 blockade assay was used to test the functionality of 3 anti-PD-L1 antibodies. It was observed that purified polyclonal anti-PD-L1 antibody from the rabbits was able to block PD1/PD-L1 interaction similar to commercial anti-human PD-L1 antibody (FIG. 12). […] In FIG. 12, we show the capacity of each of the PD-L1 vaccines to block the PD-1:PD-L1 interaction as compared to Nivolumab and Atezolizumab. Remarkably only PD-L1 130-147 antibodies were effective
The assay was performed following the manufacturer's protocol for the PD-1/PD-L1 blockade bioassay (Promega). In brief, 4×10^5 aAPC/CHO-K1 or PD-L1 aAPC/CHO-K1 cells were seeded into 96-well plates in RPMI-1640 with 10% FBS. After overnight culturing, the medium was aspirated, and serially diluted purified PD-L1 or PD-1 antibodies, as well as Nivolumab and Atezolizumab antibodies (as reference antibodies) were added. Next, PD-1 effector cells were co-cultured and plate was kept for 5 h at 37° C. in a humidified 5% CO2 incubator. Following mixing with Bio-Glo Reagent, the luminescence was measured with a luminescence plate reader, SpectraMax M3 plate reader (Molecular Devices).

[2] = test system: MVF-PD-L1 peptide immunogen; test: Immunogenicity in Balb/c mice, experiment 2 (CT26/HER-2): ELISA of sera vs each MVF-PD-L1 peptide immunogen; type: in vivo
Experimental: Immunogenicity of MVF-PD-L1 B-cell epitopes. New Zealand White rabbits were immunized with 1 mg of each MVF-peptide immunogens dissolved in dd H2O emulsified (1:1) in Montanide ISA 720 vehicle (Seppic) with 333 μg of N-acetylglucosamine-3yl-acetyl-1-alanyl-d-isoglutamine (nor-MDP). Rabbits were boosted with the same doses at 3-week's intervals. Blood was collected via the central auricular artery in rabbits. Blood was collected weekly (1Y+3, 2Y+1, 2Y+2,2Y+3, 3Y+1, 3Y+2 and sera tested for antibody titers by ELISA using the immunogens MVF-PD-L1 peptides. Sera (terminal) from rabbit (3Y+3) immunized with MVF-PD-1 peptide immunogens were tested individually versus the immunogen by ELISA. 200 ng/well peptide were used in duplicates to coat the ELISA plates. Titers are defined as the highest dilution of sera with an absorbance value of 0.2 after subtracting the blank. […]
In order to verify the efficacy of the PD-L1 epitope vaccines in vivo in the CT26/HER-2 carcinoma cell line, Balb/c mice (10 mice/group) were immunized with 100 μg each of MVF-PD-L1 (36-53), MVF-PD-L1 (50-67), MVF-PD-L1 (95-112) and MVF-PD-L1 (130-147) emulsified with nor-MDP and Montanide 720 (1:1 ratio) SCHEME 2A (FIG. 15A). As detailed in SCHEME 2A-D (FIGS. 15A, 15B, 15C, and 15D), mice were immunized 3 times at 3 weeks intervals. […] All PD-L1 epitopes elicited high titers of PD-L1 anti-peptide antibodies by ELISA. […] We also investigated the combination of PD-1(92-110) with PD-L1-95.
For each peptide, vaccine antibodies were raised in New Zealand white rabbits, purchased from Charles River Laboratories (Wilmington, MA, USA). Rabbits were immunized with 1 mg of MVF chimeric peptide emulsified in Montanide ISA 720 (Seppic, Paris, France) and boosted 3 times at three week intervals. For mouse experiments, mice, 6-8 weeks old, were immunized with 0.1 mg of peptide emulsified in ISA720 (1:1 ratio). Mice were boosted with the respective doses at 3-week intervals. Blood was then collected and sera were tested for antibody titers. Sera were collected weekly and peptide vaccine antibodies were purified by affinity chromatography using a protein A/G column and the concentration was measured using Spectrophometer. All experiments were performed in accordance with the U.S. Public Health Service Policy on Humane Care and Use of Laboratory animals and approved by the Ohio State University Institutional Animals Care and Use Committee, detailed in the accepted protocol.
6-8 weeks old BALB/c mice (Charles River, Wilmington, MA) were used as standard animal models. Mouse CT26 colon carcinoma cell line was purchased from American Type Culture Collection Cells and were regularly cultured in RPMI1640 medium containing 10% FBS. CT26/HER2 cells were kindly provided by M. Penichet. Vaccines were dissolved in sterile water and emulsified in Montanide ISA 720 (1:1). Female Balb/c mice (Charles River Laboratories) at the age of 6-8 weeks were immunized three times at 3-week intervals with 100 μg of each peptide vaccine, and 2 weeks after the third immunization, the mice were challenged with CT26 and/or CT26/HER-2 tumor cells, which were implanted subcutaneously (s.c) on the right flank (1×10^5 per mouse). 200 μg of rat α-mouse PD-L1 mAb 10F.9G2 (Bio X Cell, West Lebanon, NH) were administered intraperitoneally (i.p.), twice weekly following tumor inoculation in the control group. Mice were monitored and scored for the formation of palpable tumors on a daily basis and sacrificed if tumors became necrotic or exceeded the predetermined size of 2,000 mm^3. Tumor volumes were measured in cubic millimeters with calipers and calculated with the following formula: A×B^2×0.5, where A is the largest diameter, and B is the widest point perpendicular to length. During immunization, blood was drawn weekly and used in ELISA to monitor antibody titers.

KLLSLIKGVIVHRLEGVEGPSLVTSEHELTCQAEGYPKAE (KLLSLIKGVIVHRLEGVEGPSLVTSEHELTCQAEGYPKAE-NH2) [PD-L1(130)]
blocking of PD-1/PD-L1 interaction [1]: able to inhibit PD-1/PD-L1 | Immunogenicity (titers) 1′ Conc. 1: ([2]; bleed 1Y + 3, (1to100)): 1600 | ELISA plate reading of serum ([2]; bleed 1Y + 3, (1to100), dilution 800, duplicate wells): 0.449 and 0.439 | ELISA plate reading of serum ([2]; bleed 1Y + 3, (1to100), dilution 1,600, duplicate wells): 0.262 and 0.245 | ELISA plate reading of serum ([2]; bleed 1Y + 3, (1to100), dilution 6,400, duplicate wells): 0.072 and 0.050 | ELISA plate reading of serum ([2]; bleed 1Y + 3, (1to100), dilution 12,800, duplicate wells): 0.040 and 0.030 | ELISA plate reading of serum ([2]; bleed 1Y + 3, (1to100), dilution row 100, duplicate wells): 1.023 and 1.039 | ELISA plate reading of serum ([2]; bleed 1Y + 3, (1to100), dilution row 200, duplicate wells): 0.861 and 0.849 | ELISA plate reading of serum ([2]; bleed 1Y + 3, (1to100), dilution row 400, duplicate wells): 0.671 and 0.672 | ELISA plate reading of serum ([2]; bleed 1Y + 3, (1to100), dilution row 3,200, duplicate wells): 0.148 and 0.110 | Immunogenicity (titers) 1′ Conc. 1: ([2]; bleed 2Y + 1, (1to100)): 6400 | ELISA plate reading of serum ([2]; bleed 2Y + 1, (1to100), dilution 800, duplicate wells, bleed 2Y + 1): 1.118 and 1.079 | ELISA plate reading of serum ([2]; bleed 2Y + 1, (1to100), dilution 1,600, duplicate wells, bleed 2Y + 1): 0.819 and 0.774 | ELISA plate reading of serum ([2]; bleed 2Y + 1, (1to100), dilution 6,400, duplicate wells, bleed 2Y + 1): 0.311 and 0.286 | ELISA plate reading of serum ([2]; bleed 2Y + 1, (1to100), dilution 12,800, duplicate wells, bleed 2Y + 1): 0.175 and 0.162 | ELISA plate reading of serum ([2]; bleed 2Y + 1, (1to100), dilution row 100, duplicate wells, bleed 2Y + 1): 1.606 and 1.563 | ELISA plate reading of serum ([2]; bleed 2Y + 1, (1to100), dilution row 200, duplicate wells, bleed 2Y + 1): 1.477 and 1.479 | ELISA plate reading of serum ([2]; bleed 2Y + 1, (1to100), dilution row 400, duplicate wells, bleed 2Y + 1): 1.378 and 1.347 | ELISA plate reading of serum ([2]; bleed 2Y + 1, (1to100), dilution row 3,200, duplicate wells, bleed 2Y + 1): 0.516 and 0.492 | Immunogenicity (titers) 1′ Conc. 1: ([2]; bleed 2Y + 2, (1to1k)): 16000 | ELISA plate reading of serum ([2]; bleed 2Y + 2, (1to1k), dilution 800, duplicate wells): 0.407 and 0.427 | ELISA plate reading of serum ([2]; bleed 2Y + 2, (1to1k), dilution 1,600, duplicate wells): 0.280 and 0.257 | ELISA plate reading of serum ([2]; bleed 2Y + 2, (1to1k), dilution 6,400, duplicate wells): 0.064 and 0.061 | ELISA plate reading of serum ([2]; bleed 2Y + 2, (1to1k), dilution row 100, duplicate wells): 1.476 and 1.437 | ELISA plate reading of serum ([2]; bleed 2Y + 2, (1to1k), dilution row 200, duplicate wells): 1.131 and 1.086 | ELISA plate reading of serum ([2]; bleed 2Y + 2, (1to1k), dilution row 400, duplicate wells): 0.767 and 0.735 | ELISA plate reading of serum ([2]; bleed 2Y + 2, (1to1k), dilution row 3,200, duplicate wells): 0.145 and 0.132 | Immunogenicity (titers) 1′ Conc. 1: ([2]; bleed 2Y + 3, (1to1k)): 64000 | ELISA plate reading of serum ([2]; bleed 2Y + 3, (1to1k), dilution 800, duplicate wells): 1.024 and 0.946 | ELISA plate reading of serum ([2]; bleed 2Y + 3, (1to1k), dilution 1,600, duplicate wells): 0.699 and 0.615 | ELISA plate reading of serum ([2]; bleed 2Y + 3, (1to1k), dilution 6,400, duplicate wells): 0.246 and 0.233 | ELISA plate reading of serum ([2]; bleed 2Y + 3, (1to1k), dilution row 100, duplicate wells): 1.711 and 1.644 | ELISA plate reading of serum ([2]; bleed 2Y + 3, (1to1k), dilution row 200, duplicate wells): 1.518 and 1.488 | ELISA plate reading of serum ([2]; bleed 2Y + 3, (1to1k), dilution row 400, duplicate wells): 1.317 and 1.263 | ELISA plate reading of serum ([2]; bleed 2Y + 3, (1to1k), dilution row 3,200, duplicate wells): 0.435 and 0.430 | Immunogenicity (titers) 1′ Conc. 1: ([2]; bleed 3Y + 1, (1to1k)): 64000 | ELISA plate reading of serum ([2]; bleed 3Y + 1, (1to1k), dilution 800, duplicate wells, bleed 3Y + 1): 1.176 and 1.158 | ELISA plate reading of serum ([2]; bleed 3Y + 1, (1to1k), dilution 1,600, duplicate wells, bleed 3Y + 1): 0.801 and 0.729 | ELISA plate reading of serum ([2]; bleed 3Y + 1, (1to1k), dilution 6,400, duplicate wells, bleed 3Y + 1): 0.219 and 0.206 | ELISA plate reading of serum ([2]; bleed 3Y + 1, (1to1k), dilution row 100, duplicate wells, bleed 3Y + 1): 1.928 and 1.945 | ELISA plate reading of serum ([2]; bleed 3Y + 1, (1to1k), dilution row 200, duplicate wells, bleed 3Y + 1): 1.823 and 1.707 | ELISA plate reading of serum ([2]; bleed 3Y + 1, (1to1k), dilution row 400, duplicate wells, bleed 3Y + 1): 1.516 and 1.458 | ELISA plate reading of serum ([2]; bleed 3Y + 1, (1to1k), dilution row 3,200, duplicate wells, bleed 3Y + 1): 0.438 and 0.427 | Immunogenicity (titers) 1′ Conc. 1: ([2]; bleed 3Y + 2, (1to1k)): 64000 | ELISA plate reading of serum ([2]; bleed 3Y + 2, (1to1k), dilution 800, duplicate wells, bleed 3Y + 2): 1.412 and 1.389 | ELISA plate reading of serum ([2]; bleed 3Y + 2, (1to1k), dilution 1,600, duplicate wells, bleed 3Y + 2): 0.961 and 0.874 | ELISA plate reading of serum ([2]; bleed 3Y + 2, (1to1k), dilution 6,400, duplicate wells, bleed 3Y + 2): 0.262 | ELISA plate reading of serum ([2]; bleed 3Y + 2, (1to1k), dilution row 100, duplicate wells, bleed 3Y + 2): 2.313 and 2.334 | ELISA plate reading of serum ([2]; bleed 3Y + 2, (1to1k), dilution row 200, duplicate wells, bleed 3Y + 2): 2.188 and 2.048 | ELISA plate reading of serum ([2]; bleed 3Y + 2, (1to1k), dilution row 400, duplicate wells, bleed 3Y + 2): 1.819 and 1.749 | ELISA plate reading of serum ([2]; bleed 3Y + 2, (1to1k), dilution row 3,200, duplicate wells, bleed 3Y + 2): 0.526 and 0.512 | Immunogenicity (titers) 1′ Conc. 1: ([2]; bleed 3Y + 3, (1to1k)): 64000 | ELISA plate reading of serum ([2]; bleed 3Y + 3, (1to1k), dilution 800, duplicate wells): 1.445 and 1.468 | ELISA plate reading of serum ([2]; bleed 3Y + 3, (1to1k), dilution 1,600, duplicate wells): 0.909 and 0.999 | ELISA plate reading of serum ([2]; bleed 3Y + 3, (1to1k), dilution 6,400, duplicate wells): 0.257 | ELISA plate reading of serum ([2]; bleed 3Y + 3, (1to1k), dilution row 100, duplicate wells): 2.427 and 2.406 | ELISA plate reading of serum ([2]; bleed 3Y + 3, (1to1k), dilution row 200, duplicate wells): 2.130 and 2.275 | ELISA plate reading of serum ([2]; bleed 3Y + 3, (1to1k), dilution row 400, duplicate wells): 1.819 and 1.892 | ELISA plate reading of serum ([2]; bleed 3Y + 3, (1to1k), dilution row 3,200, duplicate wells): 0.532 and 0.547

— patent publication US12589143B2, “Human anti-PD-L1 peptide vaccines and methods of their use” (priority 2019, dated 2026)
